Data taken from patent US7482024B2, “Compositions comprising an active agent” (Nektar Therapeutics, priority 1999, dated 2009).
Several values for one entry are separate records, joined by “and”; a condition that tells them apart may be missing. Identical values can stand only once. Entries after “also recorded” stand apart in the source; their conditions may differ.

Assay: Surface tension measurement, Kruss Processor Tensiometer-K12, Wilhelmy-method (plate method)
Assay type: physicochemical
Conditions: for Surface tension, 25° C. Extrapolated Values at 2 mg/ml / Surface tension, 45° C. Extrapolated Values at 2 mg/ml: extrapolated to 2 mg/ml
Description: A “surface active” material is one having surface activity (measured, e.g., by surface tensiometry), as characterized by its ability to reduce the surface tension of the liquid in which it is dissolved. […] A peptide that is more surface active than another peptide is one which decreases the surface tension of water to a greater extent, when present in the liquid at the same concentration and measured under the same set of experimental conditions. The surface tension of several representative dipeptides, tripeptides, and proteins was measured at 25° C. and 45° C. to provide an indication of their relative surface activities. Surface tension measurements were carried out using a Kruss Processor Tensiometer-K12 with the Wilhelmy-method (Plate method). Solutions were prepared by dissolving either 0.05%, 0.2%, or 0.6% peptide/protein (by weight) along with an appropriate amount of raffinose by weight to provide final solutions having a 1.0% by weight solids content. Surface tension measurements at 25° C. and 45° C. were then obtained for the test solutions at three different time points (49 seconds, 100 seconds and 194 seconds).

[1] = 0.2% (wt/vol) plus raffinose to 1% total solids, 25° C., 49 s
[2] = 0.2% (wt/vol) plus raffinose to 1% total solids, 25° C., 100 s
[3] = 0.2% (wt/vol) plus raffinose to 1% total solids, 25° C., 194 s
[4] = Table 2: 0.20% (wt/vol) plus 0.80% raffinose, 25° C., 49 s
[5] = Table 2: 0.20% (wt/vol) plus 0.80% raffinose, 25° C., 100 s
[6] = Table 2: 0.20% (wt/vol) plus 0.80% raffinose, 25° C., 194 s

Surface tension (ST) [1] | Surface tension (ST) [2] | Surface tension (ST) [3] | Surface tension (ST) [4] | Surface tension (ST) [5] | Surface tension (ST) [6] | Surface tension, 25° C. Extrapolated Values at 2 mg/ml (25° C.) [mN/m] | Surface tension, 45° C. Extrapolated Values at 2 mg/ml (45° C.) [mN/m] | Substance | Surface activity (ability to lower the surface tension of water), in words | also measured
72 mN/m and 72.1 mN/m | 72 mN/m and 71.9 mN/m and 72.1 mN/m | 71.9 mN/m and 72.1 mN/m |  |  |  |  |  | di-alanine [reference compound] |  | 
 |  |  | 67.7 mN/m and 67.6 mN/m and 68 mN/m | 71.6 mN/m and 67.2 mN/m and 67.8 mN/m | 71.6 mN/m and 67 mN/m and 67.6 mN/m |  |  | di-isoleucine [reference compound] | not particularly effective at lowering the surface tension of water | 
 |  |  | 71.7 mN/m and 71.6 mN/m | 71.6 mN/m | 71.6 mN/m |  |  | di-valine [reference compound] | not particularly effective at lowering the surface tension of water | 
58.4 mN/m and 58.7 mN/m and 60.1 mN/m | 58.1 mN/m and 58.3 mN/m and 59.8 mN/m | 57.9 mN/m and 58.2 mN/m and 59.7 mN/m |  |  |  | 60.4 | 52.4 | dileucine [di-leucine] | highly surface active; also recorded: more effective than any of the other dimers examined in reducing the surface tension of water | Surface tension, Actual MEAN (1.51 mg/ml, 25° C.): 61.5 mN/m; Surface tension, Actual MEAN (1.51 mg/ml, 45° C.): 53.2 mN/m; Surface tension, Actual MEAN (4.53 mg/ml, 25° C.): 54.9 mN/m; Surface tension, Actual MEAN (4.53 mg/ml, 45° C.): 48.2 mN/m; Surface tension, Actual MEAN (13.60 mg/ml, 25° C.): 46.6 mN/m; Surface tension, Actual MEAN (13.60 mg/ml, 45° C.): 42.7 mN/m
 |  |  |  |  |  | 46.6 | 49.8 | leu-leu-ala |  | Surface tension, Actual MEAN (0.76 mg/ml, 25° C.): 60.7 mN/m; Surface tension, Actual MEAN (0.76 mg/ml, 45° C.): 58.3 mN/m; Surface tension, Actual MEAN (2.27 mg/ml, 25° C.): 43.5 mN/m; Surface tension, Actual MEAN (2.27 mg/ml, 45° C.): 48.2 mN/m; Surface tension, Actual MEAN (6.80 mg/ml, 25° C.): 39.9 mN/m; Surface tension, Actual MEAN (6.80 mg/ml, 45° C.): 48.4 mN/m
 |  |  |  |  |  | 48.3 | 46.2 | leu-phe-leu |  | Surface tension, Actual MEAN (0.68 mg/ml, 25° C.): 54.7 mN/m; Surface tension, Actual MEAN (0.68 mg/ml, 45° C.): 53.6 mN/m; Surface tension, Actual MEAN (2.03 mg/ml, 25° C.): 48.3 mN/m; Surface tension, Actual MEAN (2.03 mg/ml, 45° C.): 46.2 mN/m; Surface tension, Actual MEAN (6.10 mg/ml, 25° C.): 41.5 mN/m; Surface tension, Actual MEAN (6.10 mg/ml, 45° C.): 39.3 mN/m
 |  |  |  |  |  | 47.9 | 44.7 | leu-tyr-leu | the most surface active of the trimers | Surface tension, Actual MEAN (0.32 mg/ml, 25° C.): 58.4 mN/m; Surface tension, Actual MEAN (0.32 mg/ml, 45° C.): 55.4 mN/m; Surface tension, Actual MEAN (0.97 mg/ml, 25° C.): 51.6 mN/m; Surface tension, Actual MEAN (0.97 mg/ml, 45° C.): 49.1 mN/m; Surface tension, Actual MEAN (2.90 mg/ml, 25° C.): 44.7 mN/m; Surface tension, Actual MEAN (2.90 mg/ml, 45° C.): 40.8 mN/m
48.7 mN/m | 48.6 mN/m | 48.5 mN/m |  |  |  |  |  | salmon calcitonin [sal. Calcitonin, reference compound] | highly surface active | Surface tension (ST) (0.2% (wt/vol) plus raffinose to 1% total solids, 25° C., 49 s, listed as sal. calcitonin): 48.4 mN/m; Surface tension (ST) (0.2% (wt/vol) plus raffinose to 1% total solids, 25° C., 100 s, listed as sal. calcitonin): 48.4 mN/m; Surface tension (ST) (0.2% (wt/vol) plus raffinose to 1% total solids, 25° C., 194 s, listed as sal. calcitonin): 48.4 mN/m
 |  |  | 68.8 mN/m and 68.7 mN/m | 68.8 mN/m and 68.7 mN/m | 68.8 mN/m and 68.7 mN/m |  |  | tri-valine [reference compound] | not particularly effective at lowering the surface tension of water | 
